Test results from patent publication US11970511B2, “Tetrahydropyran-based thiodisaccharide mimics as Galectin-3 inhibitors” (BRISTOL-MYERS SQUIBB COMPANY, priority 2018, dated 2024).

Molecular target: His-tagged recombinant human Gal-3 (hGal-3) (Homo sapiens, UniProt P17931)
Experiment: Gal-3 HTRF assay: His-tagged hGal-3 binding to B-ASF, Anti-His terbium antibody / Streptavidin d2 detection;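 also: compound preincubated 30 min with hGal-3, then 1 h with B-ASF, DMSO wells with B-ASF serving as positive control and those lacking B-ASF as negative control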
Settings: 15 nM hGal-3, 15 nM B-ASF, three replicates, room temperature

Chain of His-tagged recombinant human Gal-3 (hGal-3) (P17931 whole entry): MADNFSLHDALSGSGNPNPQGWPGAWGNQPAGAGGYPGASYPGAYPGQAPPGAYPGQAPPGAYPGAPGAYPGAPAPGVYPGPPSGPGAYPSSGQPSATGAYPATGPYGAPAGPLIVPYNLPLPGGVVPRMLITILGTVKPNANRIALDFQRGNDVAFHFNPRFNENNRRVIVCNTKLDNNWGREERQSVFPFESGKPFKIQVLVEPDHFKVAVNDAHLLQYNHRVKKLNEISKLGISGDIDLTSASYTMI

SMILES | IC50
COc1ncc(-c2cn([C@H]3COC[C@@H](S[C@@H]4O[C@H](CO)[C@H](O)[C@H](n5cc(-c6cc(F)c(F)c(F)c6)nn5)[C@H]4OCC(=O)N4CCOCC4)[C@@H]3O)nn2)cn1 [Example 31, 2-(((2S,3R,4S,5R,6R)-5-hydroxy-2-(((3R,4R,5S)-4-hydroxy-5-(4-(2-methoxypyrimidin-5-yl)-1H-1,2,3-triazol-1-yl)tetrahydro-2H-pyran-3-yl)thio)-6-(hydroxymethyl)-4-(4-(3,4,5-trifluorophenyl)-1H-1,2,3-triazol-1-yl)tetrahydro-2H-pyran-3-yl)oxy)-1-morpholinoethan-1-one] | 13 nM
COc1ncc(-c2cn(C3COCC(SC4OC(CO)C(O)C(n5cc(-c6cc(F)c(F)c(F)c6)nn5)C4OCC(=O)N4CCS(=O)(=O)CC4)C3O)nn2)cn1 [Example 33, 1-(1,1-dioxidothiomorpholino)-2-(((2S,3R,4S,5R,6R)-5-hydroxy-2-(((3R,4R,5S)-4-hydroxy-5-(4-(2-methoxypyrimidin-5-yl)-1-1,2,3-triazol-1-yl)tetrahydro-2H-pyran-3-yl)thio)-6-(hydroxymethyl)-4-(4-(3,4,5-trifluorophenyl)-1H-1,2,3-triazol-1-yl)tetrahydro-2H-pyran-3-yl)oxy)ethan-1-one] | 12 nM
COc1ncc(-c2cn([C@H]3COC[C@@H](S[C@@H]4O[C@H](CO)[C@H](O)[C@H](n5cc(-c6cc(F)c(F)c(F)c6)nn5)[C@H]4OCC(=O)N4CC(O)C4)[C@@H]3O)nn2)cn1 [Example 34, 2-(((2S,3R,4S,5R,6R)-5-hydroxy-2-(((3R,4R,5S)-4-hydroxy-5-(4-(2-methoxypyrimidin-5-yl)-1H-1,2,3-triazol-1-yl)tetrahydro-2H-pyran-3-yl)thio)-6-(hydroxymethyl)-4-(4-(3,4,5-trifluorophenyl)-1H-1,2,3-triazol-1-yl)tetrahydro-2H-pyran-3-yl)oxy)-1-(3-hydroxyazetidin-1-yl)ethan-1-one] | 24 nM
COc1ncc(-c2cn([C@H]3COC[C@@H](S[C@@H]4O[C@H](CO)[C@H](O)[C@H](n5cc(-c6cc(F)c(F)c(F)c6)nn5)[C@H]4OCC(=O)N4CCC4)[C@@H]3O)nn2)cn1 [Example 35, 1-(azetidin-1-yl)-2-(((2S,3R,4S,5R,6R)-5-hydroxy-2-(((3R,4R,5S)-4-hydroxy-5-(4-(2-methoxypyrimidin-5-yl)-1H-1,2,3-triazol-1-yl)tetrahydro-2H-pyran-3-yl)thio)-6-(hydroxymethyl)-4-(4-(3,4,5-trifluorophenyl)-1H-1,2,3-triazol-1-yl)tetrahydro-2H-pyran-3-yl)oxy)ethan-1-one] | 32 nM
CO[C@@H]1[C@@H](n2cc(-c3cccnc3)nn2)[C@@H](O)[C@@H](CO)O[C@H]1S[C@@H]1COC[C@H](n2cc(-c3ccccc3)nn2)[C@H]1O [Example A1, (2R,3R,4S,5R,6S)-6-(((3R,4R,5S)-4-hydroxy-5-(4-phenyl-1H-1,2,3-triazol-1-yl)tetrahydro-2H-pyran-3-yl)thio)-2-(hydroxymethyl)-5-methoxy-4-(4-(pyridin-3-yl)-1H-1,2,3-triazol-1-yl)tetrahydro-2H-pyran-3-ol] | 1100 nM
CO[C@@H]1[C@@H](n2cc(-c3ccncc3)nn2)[C@@H](O)[C@@H](CO)O[C@H]1S[C@@H]1COC[C@H](n2cc(-c3ccccc3)nn2)[C@H]1O [Example A2, (2R,3R,4S,5R,6S)-6-(((3R,4R,5S)-4-hydroxy-5-(4-phenyl-1H-1,2,3-triazol-1-yl)tetrahydro-2H-pyran-3-yl)thio)-2-(hydroxymethyl)-5-methoxy-4-(4-(pyridin-4-yl)-1H-1,2,3-triazol-1-yl)tetrahydro-2H-pyran-3-ol] | 1100 nM
CO[C@@H]1[C@@H](n2cc(-c3ccc(-c4ccccc4)cc3)nn2)[C@@H](O)[C@@H](CO)O[C@H]1S[C@@H]1COC[C@H](n2cc(-c3ccccc3)nn2)[C@H]1O [Example A3, (2R,3R,4S,5R,6S)-4-(4-([1,1′-biphenyl]-4-yl)-1H-1,2,3-triazol-1-yl)-6-(((3R,4R,5S)-4-hydroxy-5-(4-phenyl-1H-1,2,3-triazol-1-yl)tetrahydro-2H-pyran-3-yl)thio)-2-(hydroxymethyl)-5-methoxytetrahydro-2H-pyran-3-ol] | 11000 nM
CO[C@@H]1[C@@H](n2cc(-c3cccc(F)c3)nn2)[C@@H](O)[C@@H](CO)O[C@H]1S[C@@H]1COC[C@H](n2cc(-c3ccccc3)nn2)[C@H]1O [Example A4, (2R,3R,4S,5R,6S)-4-(4-(3-fluorophenyl)-1H-1,2,3-triazol-1-yl)-6-(((3R,4R,5S)-4-hydroxy-5-(4-phenyl-1H-1,2,3-triazol-1-yl)tetrahydro-2H-pyran-3-yl)thio)-2-(hydroxymethyl)-5-methoxytetrahydro-2H-pyran-3-ol] | 26 nM
CO[C@@H]1[C@@H](n2cc(-c3nccs3)nn2)[C@@H](O)[C@@H](CO)O[C@H]1S[C@@H]1COC[C@H](n2cc(-c3ccccc3)nn2)[C@H]1O [Example A5, (2R,3R,4S,5R,6S)-6-(((3R,4R,5S)-4-hydroxy-5-(4-phenyl-1H-1,2,3-triazol-1-yl)tetrahydro-2H-pyran-3-yl)thio)-2-(hydroxymethyl)-5-methoxy-4-(4-(thiazol-2-yl)-1H-1,2,3-triazol-1-yl)tetrahydro-2H-pyran-3-ol] | 490 nM
CO[C@@H]1[C@@H](n2cc(-c3cncnc3)nn2)[C@@H](O)[C@@H](CO)O[C@H]1S[C@@H]1COC[C@H](n2cc(-c3ccccc3)nn2)[C@H]1O [Example A6, (2R,3R,4S,5R,6S)-6-(((3R,4R,5S)-4-hydroxy-5-(4-phenyl-1H-1,2,3-triazol-1-yl)tetrahydro-2H-pyran-3-yl)thio)-2-(hydroxymethyl)-5-methoxy-4-(4-(pyrimidin-5-yl)-1H-1,2,3-triazol-1-yl)tetrahydro-2H-pyran-3-ol] | 360 nM
CO[C@@H]1[C@@H](n2cc(-c3cncs3)nn2)[C@@H](O)[C@@H](CO)O[C@H]1S[C@@H]1COC[C@H](n2cc(-c3ccccc3)nn2)[C@H]1O [Example A7, (2R,3R,4S,5R,6S)-6-(((3R,4R,5S)-4-hydroxy-5-(4-phenyl-1H-1,2,3-triazol-1-yl)tetrahydro-2H-pyran-3-yl)thio)-2-(hydroxymethyl)-5-methoxy-4-(4-(thiazol-5-yl)-1H-1,2,3-triazol-1-yl)tetrahydro-2H-pyran-3-ol] | 840 nM
CO[C@@H]1[C@@H](n2cc(-c3ccc4nccnc4c3)nn2)[C@@H](O)[C@@H](CO)O[C@H]1S[C@@H]1COC[C@H](n2cc(-c3ccccc3)nn2)[C@H]1O [Example A8, (2R,3R,4S,5R,6S)-6-(((3R,4R,5S)-4-hydroxy-5-(4-phenyl-1H-1,2,3-triazol-1-yl)tetrahydro-2H-pyran-3-yl)thio)-2-(hydroxymethyl)-5-methoxy-4-(4-(quinoxalin-6-yl)-1H-1,2,3-triazol-1-yl)tetrahydro-2H-pyran-3-ol] | 170 nM
CO[C@@H]1[C@@H](n2cc(-c3ccnnc3)nn2)[C@@H](O)[C@@H](CO)O[C@H]1S[C@@H]1COC[C@H](n2cc(-c3ccccc3)nn2)[C@H]1O [Example A9, (2R,3R,4S,5R,6S)-6-(((3R,4R,5S)-4-hydroxy-5-(4-phenyl-1H-1,2,3-triazol-1-yl)tetrahydro-2H-pyran-3-yl)thio)-2-(hydroxymethyl)-5-methoxy-4-(4-(pyridazin-4-yl)-1H-1,2,3-triazol-1-yl)tetrahydro-2H-pyran-3-ol] | 1240 nM
CO[C@@H]1[C@@H](n2cc(-c3ccc4ccccc4c3)nn2)[C@@H](O)[C@@H](CO)O[C@H]1S[C@@H]1COC[C@H](n2cc(-c3ccccc3)nn2)[C@H]1O [Example A10, (2R,3R,4S,5R,6S)-6-(((3R,4R,5S)-4-hydroxy-5-(4-phenyl-1H-1,2,3-triazol-1-yl)tetrahydro-2H-pyran-3-yl)thio)-2-(hydroxymethyl)-5-methoxy-4-(4-(naphthalen-2-yl)-1H-1,2,3-triazol-1-yl)tetrahydro-2H-pyran-3-ol] | 330 nM
COC(=O)C12CCC(c3cn(C4C(O)C(CO)OC(SC5COCC(n6cc(-c7ccccc7)nn6)C5O)C4OC)nn3)(CC1)CC2 [Example A11, methyl 4-(1-((2R,3R,4S,5R,6S)-3-hydroxy-6-(((3R,4R,5S)-4-hydroxy-5-(4-phenyl-1H)-1,2,3-triazol-1-yl)tetrahydro-2H-pyran-3-yl)thio)-2-(hydroxymethyl)-5-methoxytetrahydro-2H-pyran-4-yl)-1H-1,2,3-triazol-4-yl)bicyclo[2.2.2]octane-1-carboxylate] | 1860 nM
CO[C@@H]1[C@@H](NC(=O)c2cc(F)c(F)c(F)c2)[C@@H](O)[C@@H](CO)O[C@H]1S[C@@H]1COC[C@H](n2cc(-c3ccccc3)nn2)[C@H]1O [Example A12, 3,4,5-trifluoro-N-((2R,3R,4S,5R,6S)-3-hydroxy-6-(((3R,4R,5S)-4-hydroxy-5-(4-phenyl-1H-1,2,3-triazol-1-yl)tetrahydro-2H-pyran-3-yl)thio)-2-(hydroxymethyl)-5-methoxytetrahydro-2H-pyran-4-yl)benzamide] | 1400 nM
COc1c(F)c(F)c(C(=O)N[C@H]2[C@@H](O)[C@@H](CO)O[C@@H](S[C@@H]3COC[C@H](n4cc(-c5ccccc5)nn4)[C@H]3O)[C@@H]2OC)c(F)c1F [Example A13, 2,3,5,6-tetrafluoro-N-((2R,3R,4S,5R,6S)-3-hydroxy-6-(((3R,4R,5S)-4-hydroxy-5-(4-phenyl-1H-1,2,3-triazol-1-yl)tetrahydro-2H-pyran-3-yl)thio)-2-(hydroxymethyl)-5-methoxytetrahydro-2H-pyran-4-yl)-4-methoxybenzamide] | 570 nM
COC1C(SC2CNCC(n3cc(-c4cccc(F)c4)nn3)C2O)OC(CO)C(O)C1n1cc(-c2cc(F)c(F)c(F)c2)nn1 (centres unmarked) [Example B1] | 67 nM
COC1C(SC2CN(C(C)=O)CC(n3cc(-c4cccc(F)c4)nn3)C2O)OC(CO)C(O)C1n1cc(-c2cc(F)c(F)c(F)c2)nn1 (centres unmarked) [Example B2] | 37 nM
COC1C(SC2CN(C(C)=O)CC(n3cc(-c4cccc(F)c4)nn3)C2O)OC(CO)C(O)C1n1cc(-c2cccc(F)c2)nn1 [Example B3, 1-((3S,4R,5R)-3-(4-(3-fluorophenyl)-1H-1,2,3-triazol-1-yl)-5-(((2S,3R,4S,5R,6R)-4-(4-(3-fluorophenyl)-1H-1,2,3-triazol-1-yl)-5-hydroxy-6-(hydroxymethyl)-3-methoxytetrahydro-2H-pyran-2-yl)thio)-4-hydroxypipeddin-1-yl)ethan-1-one] | 54 nM
